Read-outs that look alike come from different tables or passages of the source. Ends that are not written are not given here.
Key:
[1] = obese rats, previous reports; cited from earlier work
[2] = tested on: pancreatic beta cells; experiment: S661 repeated dosing in diet-induced obesity (DIO) mice, BrdU immunohistochemistry; assay type: in vivo, C57Bl/6 mice (DIO); conditions: S661 3 times 1 mg/kg or 0.125 mg/kg s.c., 4 days
Procedure: Increased beta cell replication with S661 treatment is shown as percent replication; there was no effect on non-beta cell replication. […] Immunohistochemistry was performed to analyze replication and islet area. (* p<0.05; ** p<0.01; Student's T-Test)
C57Bl/6 mice were fed a high fat diet for 17 weeks. S661 was administered subcutaneously in vehicle to DIO mice at doses of 3 times 1 mg/kg or 0.125 mg/kg bodyweight for a period of 4 days. In parallel BrdU was administered once daily at a dose of 100 mg/kg for the same period. At the fifth day the pancreas was removed and fixed in PFA. Paraffin embedded sections were stained for insulin, DAPI and BrdU. The incorporation of BrdU in replicating cells was analyzed using an automated script on images generated on a Zeiss Axioimager Z2.

[3] = tested on: pancreatic beta cells; experiment: S661 repeated dosing in normal mice, BrdU incorporation by immunohistochemistry; assay type: in vivo, C57Bl/6 mice; conditions: 4 days
Procedure: FIG. 12 is a bar graph showing beta cell replication after repeated dosing of S661 in the pancreas of normal mice. Increased replication is shown as a fold increase compared to vehicle rate. Replication was analyzed by immunohistochemistry. The control in these experiments is a vehicle without S661.
In a study, S661 was administered subcutaneously in vehicle to C57Bl/6 mice 3 times daily at the following doses 1 mg/kg; 0.5 mg/kg; 0.25 mg/kg or 0.125 mg/kg bodyweight for a period of 4 days. In parallel BrdU was administered once daily at a dose of 100 mg/kg for the same period. At the fifth day the pancreas was removed and fixed in PFA. Paraffin embedded sections were stained for insulin, DAPI and BrdU. The incorporation of BrdU in replicating beta cells was analyzed using an automated script on images generated on a Zeiss Axioimager Z2.

[4] = tested on: pancreatic beta cells; experiment: S661 once daily in normal mice, beta cell replication by flow cytometry; assay type: in vivo, C57Bl/6 mice; conditions: S661 1 mg/kg s.c. once daily, 4 days
Procedure: FIG. 13 is a bar graph showing beta cell replication after repeated dosing of S661 in normal mice. Increased beta cell replication with S661 treatment is shown as a percentage of replication. Replication was analyzed by flow cytometry. The control in these experiments is a vehicle without S661. (*** p<0.001; Student's T-Test)
In another study, S661 was administered subcutaneously in vehicle to C57Bl/6 mice as once daily injections of 1 mg/kg bodyweight for a period of 4 days. In parallel BrdU was administered once daily at a dose of 100 mg/kg for the same period. At the fifth day the pancreas was removed and the replication of beta cell was measured by flow cytometry.

[5] = Blood glucose levels after administration of S961; assay type: in vivo
Source text: As used herein, low doses of S961 will typically be less than 1 μMol/Kg/week, preferably from 0.125 μMol/Kg/week to 0.5 μMol/Kg/week. However it will be understood that increased doses may be useful as well, particularly if utilized in conjunction with an anti-hyperglycemic agent.

[6] = tested on: pancreatic beta cells; experiment: S961 treatment of mice, beta cell replication (Ki67/insulin immunostaining of pancreas); assay type: in vivo; conditions: 0.125 to 1 μMol/Kg/week, vs vehicle
Source text: The white arrows point to replicating beta cells. FIG. 1C is a bar graph showing Ki67+/insulin+% after treatment for 7 days with increasing doses (from 0.125 μMol/Kg/week to 1 μMol/Kg/week) of S961. […] The control in these experiments is vehicle without S961. To count the Ki67+/insulin+ percentage and the beta cell area/pancreas area, the whole pancreas was cryosectioned and immunostained, and the standard graph analysis tools such as Metamorph and Photoshop were used for the quantification.
As described herein, administration of a low dose of insulin receptor antagonist S961 to a mammal produces an increase in beta cell replication (FIG. 1). Following injection of S961, gene expression in liver, muscle, and fat was analyzed because these tissues are involved in carbohydrate storage and metabolism. Of particular interest as a result of this analysis was mouse gene EG624219.

[7] = tested on: TD26 (EG624219) mRNA; experiment: TD26 mRNA expression in tissues of mice treated with S961 for 7 days; assay type: in vivo; conditions: liver and fat
Source text: Genes close to the diagonal line show similar expression values in treated and untreated liver. […] TD26 expression increases in the liver and fat upon S961 treatment. […] The presumptive signal peptide is included at the N-terminus. […] Hepa1-6 cells have been transfected with a plasmid carrying the gene for TD26 fused to a Myc-tag. The cells were stained with myc antibody.

Substance	blood glucose levels [1]	beta cell replication [2]	islet area relative to total pancreas area [2]	non-beta cell replication [2]	increase in β-cell replication in comparison to vehicle ([3]; S661 0.125 mg/kg s.c. 3 times daily) [fold]	increase in β-cell replication in comparison to vehicle ([3]; S661 1 mg/kg s.c. 3 times daily) [fold]	increase in the percentage of beta cell replication as compared to vehicle [4] [fold]	blood glucose levels ([5]; increasing doses of S961)	blood glucose levels ([5]; low doses of S961)	beta cell replication (Ki67+/insulin+) ([6]; treatment for 7 to 10 days)	beta cell area/pancreas area ([6]; treatment for 7 days)	relative expression of TD26 mRNA [7]
S661: 43 amino acid peptide insulin receptor antagonist, SEQ ID NO: 16 (GSLDESFYDWFERQLGGGSGGSSLEEEWAQIQCEVWGRGCPSY), C-terminus is an amide (GSLDESFYDWFERQLGGGSGGSSLEEEWAQIQCEVWGRGCPSY-NH2; cysteine pairing not given here)	marked increase in blood glucose levels	increased amount of beta cell replication	increased islet area relative to total pancreas area	does not increase non-beta cell replication	2	5	~5	–	–	–	–	–
S961: 43 amino acid peptide insulin receptor antagonist, SEQ ID NO: 16 (GSLDESFYDWFERQLGGGSGGSSLEEEWAQIQCEVWGRGCPSY), C-terminus is an acid (GSLDESFYDWFERQLGGGSGGSSLEEEWAQIQCEVWGRGCPSY-OH; cysteine pairing not given here)	–	–	–	–	–	–	–	blood glucose levels increase	does not increase blood glucose levels	induces beta cell replication	significant increase	increases
